From US6310243A, “Iodinated x-ray contrast media” (Nycomed Imaging AS, priority 1994, dated 2001)

Tests used:
Assay type in all cases: physicochemical
[1] = Viscosity in aqueous solution at 20° C.
Experimental: Table 2 also gives calculated value for viscosity in mPas for concentration of 400 mg I/ml and 300 mg I/ml (at 20° C.).

Viscosity at 37° C. = experiment: Viscosity at 37° C.
Water solubility = conditions: noted in Table 2 in place of a concentration

SMILES: O=C(Nc1c(I)c(CO)c(I)c(N(CC(O)CO)C(=O)C(O)CO)c1I)C(O)CO (stereo not shown) [Example 15, N,N'-Bis(2,3-dihydroxypropionyl)-N-(2,3-dihydroxyoronyl)-3,5-diamino-2,4,6-triiodobenzylalcohol]
- Viscosity 20° C. ([1]; 348 mgI/ml): 7.8 mPas
- Viscosity 20° C. ([1]; 446 mgI/ml): 22 mPas
- Viscosity 20° C. ([1]; 537 mgI/ml): 75 mPas

SMILES: CN(CC(O)CO)C(=O)c1c(I)c(CO)c(I)c(NC(=O)CO)c1I (stereo not shown) [Example 44, 5-Hydroxyacetamido-3-hydroxymethyl-N-methyl-N-(2,3-dihydroxypropyl)-2,4,6-triiodobenzamide]
- Viscosity at 400 mgI/ml (CALCULATED) ([1]; 400 mgI/ml, calculated): 10.8 mPas
- Viscosity 20° C. ([1]; 481 mgI/ml): 24 mPas

SMILES: O=C(Nc1c(I)c(CO)c(I)c(NC(=O)C(O)C(O)CO)c1I)C(O)C(O)CO (stereo not shown) [Example 79, N,N'-Bis-(2,3,4-trihydroxybutanoyl)-3,5-diamino-2,4,6-triiodobenzyl alcohol]
- Viscosity at 350 mgI/ml (CALCULATED) (Viscosity at 37° C.): 5.9
- Viscosity 37° C. (Viscosity at 37° C.; 379 mgI/ml): 6.9

SMILES: OCc1cc(OCC(O)CO)c(I)c(OCC(O)CO)c1I (stereo not shown) [Example 78, 3,5-Bis-(2,3-dihydroxypropyloxy)-2,4-diiodobenzyl alcohol]
- solubility (Water solubility): low

SMILES: O=C(NCC(O)CO)c1c(I)c(CO)c(I)c(NC(=O)C(O)C(O)CO)c1I (stereo not shown) [Example 80, 5-[N'-(2,3,4-Trihydroxybutanoyl)amino]-3-hydroxymethyl-N-(2,3-dihydroxypropyl)-2,4,6-triiodobenzamide]
- Viscosity at 350 mgI/ml (CALCULATED) (Viscosity at 37° C.): 5.2
- Viscosity 37° C. (Viscosity at 37° C.; 444 mgI/ml): 11

SMILES: CC(O)C(=O)Nc1c(I)c(CO)c(I)c(N(CC(O)CO)C(=O)C(C)O)c1I (stereo not shown) [Example 11, N,N'-Bis(2-hydroxypropionyl)-N-(2,3-dihydroxypropyl)-3,5-diamino-2,4,6-triiodobenzylalcohol]
- Viscosity 20° C. ([1]; 407 mgI/ml): 16 mPas

SMILES: O=C(NC(CO)C(O)CO)c1c(I)c(CO)c(I)c(NC(=O)C(O)C(O)CO)c1I (stereo not shown) [Example 81, 5-[N'-(2,3,4-Trihydroxybutanoyl)-amino]-3-hydroxymethyl-N-(1,3,4-trihydroxybut-2-yl)-2,4,6-triiodobenzamide]
- Viscosity at 350 mgI/ml (CALCULATED) (Viscosity at 37° C.): 6.1
- Viscosity 37° C. (Viscosity at 37° C.; 376 mgI/ml): 8.9
